Test results reported in patent US12447172B2, “Use of the miR-27a-5p microRNA for treating Clostridium difficile-induced bowel inflammation” (priority 2018, dated 2025).

Legend:
IκB-α (NF-κB pathway) = assay: IκB-α Western blot of cecal lysates (NF-κB pathway activation); assay type: in vivo, C57BL/6 mice; conditions: infected, mimic-treated mice, D2 post-infection
[1] = system: C. difficile wild-type strain R20291 infection
[2] = system: C. difficile wild-type strain R20291 infection; assay: Clinical manifestations in the mouse model of CDI
C. difficile = assay: Bacterial count in cecal contents at D2 post-infection
[3] = system: miR-27a-5p expression in Caco-2 cells; assay: miR-27a-5p expression (qRT-PCR) in Caco-2 cells pretreated with NF-κB and MAPK pathway inhibitors, then incubated with FliC or C. difficile R20291; conditions: 20 μM added 1 h before FliC or strain R20291
[4] = mice infected with WT R20291, mimic 3 x 50 μg IV, D1 post-infection
[5] = mice infected with WT R20291, mimic 3 x 50 μg IV, D2 post-infection
[6] = uninfected mice (negative control) treated with mimic, D1
[7] = uninfected mice (negative control) treated with mimic, D2

miR-27a-mimic: Synthetic double-stranded RNA mimic by Riboxx (SEQ ID NO: 2/3, M-00303-0200 CONmiR Mimic in vivo), given IV mixed with in vivo-jetPEI (chain 1 AGGGCUUAGCUGCUUGUGACCCCC; chain 2 GGGGGUCACAAGCAGCUAAGCCCU; formulated with in vivo-jetPEI, further chemistry not given here)
IκB-α in the cecum (NF-κB pathway activation) (IκB-α (NF-κB pathway)): no activation of IκB-α was detected
mice with a cecum with little or no evidence of inflammation and normal, mucus-free cecal contents ([1]; infected, mimic-treated group, D2 post-infection): 6 of 10
inflammatory appearance of the cecum ([1]; infected, mimic-treated mice, D2 post-infection, macroscopic): largely attenuated
inflammation score of the 3 treated mice that showed diarrhea at D2 ([1]; infected, mimic-treated, D2 post-infection): high inflammation score comparable to infected and untreated mice
efficacy rate ([1]; mouse model of infection, 3 of 10 treated mice affected): 70%
histological inflammation score (Table 3) ([1]; mouse, in vivo): 0
histologic score of inflammation (Table 3) ([1]; the infected, mimic-treated mice with little or no inflammation, D2, untreated infected mice 6 to 9): less than 6
Bristly hair D1 (animals affected/group) [2, 4]: 0/10
Reduced activity D1 (animals affected/group) [2, 4]: 0/10
Bristly hair D2 (animals affected/group) [2, 5]: 0/10
Reduced activity D2 (animals affected/group) [2, 5]: 1/10
Diarrhea D1 (animals affected/group) ([2]; mice infected with WT R20291, mimic/in vivo-jetPEI 3 x 50 μg IV, D1 post-infection): 0/10
Diarrhea D2 (animals affected/group) ([2]; mice infected with WT R20291, mimic/in vivo-jetPEI 3 x 50 μg IV, D2 post-infection): 3/10
Diarrhea D2 (animals affected/group) ([2]; mice infected with WT R20291, mimic/in vivo-jetPEI 3 x 50 μg IV, D2 post-infection, listed as miR27-a-mimic): 3 out of 10
clinical and pathological manifestations caused by the bacteria ([2]; mouse model of CDI, mimic administered intravenously): significantly reduces
Diarrhea D1 (animals affected/group) ([2]; uninfected mice (negative control) treated with mimic 3 x 50 μg IV, D1): 0/9
Diarrhea D2 (animals affected/group) ([2]; uninfected mice (negative control) treated with mimic 3 x 50 μg IV, D2): 0/9
Bristly hair D1 (animals affected/group) [2, 6]: 0/9
Reduced activity D1 (animals affected/group) [2, 6]: 0/9
Bristly hair D2 (animals affected/group) [2, 7]: 0/9
Reduced activity D2 (animals affected/group) [2, 7]: 0/9
bacterial count in the cecal contents (C. difficile; WT-infected, mimic-treated mice): 3.7 × 10^9 CFU/g
rate of intestinal colonization compared with untreated WT-infected mice (C. difficile; cecal contents): quite equivalent

Cc1ccc2nc(NCCN)c3ncc(C)n3c2c1 [BMS 345541]
inhibition of miR-27a-5p expression [3]: roughly 40 fold
